From a melting point compilation (Tetko et al.; mined from patent text by program, amines drawn as free bases though some values may be those of a salt)

SMILES | melting point [°C]
CCCOCCOc1ccc(-c2ccc3c(c2)C=C(C(=O)Nc2ccc(CN(C)C4CCOCC4)cc2)CCS3(=O)=O)cc1OCC | 171 to 172
Oc1ccc2c(NCCN3CCOCC3)noc2c1 | 151 to 152
Cc1ccc(OCc2ccccc2)c2[nH]c(-c3ccccc3)nc12 | 221 to 224
O=c1cc(-c2ccccc2)oc2ccc(OCCCCCCCCN3CCC(O)CC3)cc12 | 57 to 58
C=CCc1c(OC)cc(Cc2cnc(N)nc2N)cc1OC | 185 to 187
Cc1cc(NC(=O)C(C)(O)COc2cccc(C(F)(F)F)c2)ccc1[N+](=O)[O-] (stereo not drawn) | 84 to 87
O=C(Nc1ccccc1)[NH+]([O-])Cc1ccncc1 (stereo not drawn) | 174
CN1CCN(c2ccccc2CC2CCN(c3ccccc3)C2=O)CC1 (stereo not drawn) | 104 to 106
N#CC1(Nc2ccc(Cl)c(Cl)c2)CCN(C(=O)c2cc(C(F)(F)F)cc(C(F)(F)F)c2)CC1 | 195 to 197
COc1cc([N+](=O)[O-])ccc1C(=O)N1CCCCC1 | 104
O=C(Nc1nnc(C2CC2)o1)C1c2ccccc2Oc2ccccc21 | 246 to 248
Cc1nc2c3c(ccc2n1C)[C@@H](O)[C@H](O)[C@@H](c1ccccc1)O3 | 262
CCOCc1cc2cc(Br)ccc2oc1=Nc1ccccc1 | 78 to 80
CON=C1[C@@H](c2cc(OC)c(OC)c(OC)c2)CC[C@@H]1c1cc(OC)c(OC)c(OC)c1 (relative stereo) | 61 to 63
COC(=O)COc1ccc(CC(C)NCC(O)c2cc3ccccc3o2)cc1C (stereo not drawn) | 115 to 130
O=C1CCCCCC1n1nc(-c2c(-c3ccccc3)nn3ccccc23)ccc1=O (stereo not drawn) | 112 to 114
COC(=O)c1ccc(C2OC23Cc2ccccc2C3=O)cc1 (stereo not drawn) | 160 to 163
Cn1cc(-c2ccnc(Cl)n2)c(-c2ccc(Cl)cc2Cl)n1 | 165 to 166
CC(=O)C(=Cc1ccc([N+](=O)[O-])cc1)CC(=O)OCCC#N | 98 to 100
O=C(O)c1[nH]c2ccc(Cl)cc2c1S(=O)c1ccccc1 (stereo not drawn) | 183 to 185
CCOC(=O)c1nc(-c2ccc(Cl)cc2Cl)c(-c2ccc(Cl)cc2)s1 | 117 to 118
O=C(O)c1ccc2c(c1)Sc1ccccc1CC2 | 196 to 198

SMILES | melting point [°C]
O=C(O)Cc1cc(=O)c(O)cn1Cc1ccccc1 | 231 to 235
CCOC(=O)c1cnc(Cl)cc1Cl | 32 to 32.5
O=C(O)C(Br)C(O)c1cccc([N+](=O)[O-])c1 (stereo not drawn) | 124 to 125
ClC(Cl)(Oc1ccccc1)Oc1ccccc1 | 42 to 44
CC(=O)CCc1cccc(C(N)=O)c1 | 122 to 125
CCc1cncnc1O | 95 to 97
O=C(O)[C@H]1CCCN1C(=O)CCCc1ccccc1 | 86 to 87.5
CCc1nc2c(-c3ccc(OC)cc3Cl)ncnc2n1C(C1CC1)C1CC1 | 139 to 140
CCOC(=O)C=Cc1ccc(C=Cc2ccc(C=CC(=O)O)cc2)cc1 | 245 to 248
CC1(C)Oc2ccc3nc(C#N)ccc3c2C(NCCc2ccccc2)C1O (stereo not drawn) | 93 to 96
O=C(Cc1ccccc1)c1ccc(OC=C(F)F)cc1 | 81 to 85
COC(=O)c1cccc(-c2cnc3c(c2)N(Cc2ccccc2)C(=O)CN3)c1 | 211
CCCC(CCC)C(=O)NC(=O)CN | 127
C[C@@H](Nc1nnc(-c2ccccc2)c2occc12)C1CCCCC1 | 126 to 130
CC(=O)NC[C@H]1CN(c2ccc(N3CCC(Cc4nnc(N)s4)CC3)c(F)c2)C(=O)O1 | 206 to 207
CCc1[nH]n(C2CCCC2)c2nc(Cc3cccs3)nc(=O)c1-2 | 173 to 174
CSCc1ccc(NC(=O)/C=C/c2cnn(C)c2-c2ccc(SC)cc2)cc1 | 145 to 146
COc1ccc(C2=N[C@H](c3ccccc3)[C@@H](OC(=O)Nc3ccc(Cl)c(Cl)c3)CO2)cc1 (racemic) | 130
CCCCC(=N)OCC | 89 to 91
COc1ccc2ncc3c(c2c1)C(OC(C)=O)CCC3 (stereo not drawn) | 116 to 117
c1ccc(Cn2nc(-c3ccco3)c3cncnc32)cc1 | 106
CCOC(=O)N1CCC(NC2(c3ccccc3Cl)C(=O)Nc3ccc(Cl)cc32)CC1 (stereo not drawn) | 204

SMILES | melting point [°C]
CCCCNC(=S)Nc1cccc(-c2ccnc3c(C(=O)c4cccs4)cnn23)c1 | 155 to 157
CS(=O)(=O)C(S(C)(=O)=O)S(=O)(=O)Oc1ccccc1 | 159 to 160
O=C(Oc1c(Cl)cc(Cl)c(Cl)c1Cl)c1ccc(CCl)cc1 | 143 to 149
CC(C)(C)OC(=O)N1CCCC(c2ccc3c(c2)C2(CO3)C(=O)N(Cc3ccc(C(F)(F)F)o3)c3ccccc32)C1 (stereo not drawn) | 59 to 61
COCOc1ccc(-c2ccc(-c3ccc(C(=O)O)cc3)cc2-c2ccc3c(c2)C(C)(C)CCC3(C)C)cc1 | 249 to 251
CCOC(=O)C=Nc1cc(Cl)ccc1C(=O)O | 166 to 167
Cc1c(-c2ccccc2)n(Cc2ccccc2)c2ccc(-c3ccc(OCC#N)cc3)cc12 | 140
CCOC(=O)[C@H](COCc1ccccc1)NC(=O)C(C)(C)NC(=O)[C@@H](SC(C)=O)C(C)C | 55 to 57
O=C(O)c1ccc(OCCNC(=O)C2Cc3ccccc3N2S(=O)(=O)c2ccc(-c3ccc(F)cc3OC(F)F)cc2)cc1 (stereo not drawn) | 70
CS(=O)(=O)N(CCc1ccc(Cl)cc1)Cc1ccncc1 | 96 to 99
CCCCCCCCCCCCNC(=O)C(CC(=O)O)Sc1nc2ccccc2s1 (stereo not drawn) | 117 to 121
CC(C)(C)NC(=O)[C@@H]1C[C@H](Cl)CN1C(=O)[C@@H](O)[C@H](Cc1ccccc1)NC(=O)[C@H](CC(N)=O)NC(=O)c1cnc2cc([N+](=O)[O-])ccc2n1 | 153 to 156
Fc1ccc(C(Cl)(Cn2cncn2)C(F)(F)F)c(F)c1 (stereo not drawn) | 87 to 88
c1cncc(-c2ccc3nnn(Cc4ccc5ncccc5c4)c3n2)c1 | 208 to 210
O=C1N(C23CC4CC(CC(C4)C2)C3)CCC1(Cc1ccncc1)Cc1ccncc1 | 164 to 165
Cn1nc(-c2sc(C(=O)NCc3ccccn3)nc2-c2ccccc2)ccc1=O | 189 to 190
Cn1cc(CO)c(=O)c2cc(F)ccc21 | 209 to 212
COc1ccc(-c2nc(Sc3ccncc3)[nH]c2-c2ccc(OC)cc2)cc1 | 177 to 179
CN1CC(CCCl)Oc2ncc(-c3ccccc3)cc2C1=S (stereo not drawn) | 156 to 158
O=C1CCC(N2C(=O)c3ccc([N+](=O)[O-])cc3C2=O)C(=O)N1 (stereo not drawn) | 228 to 230

More lines, now with the values ahead:

melting point [°C] | SMILES
269 to 271 | Cc1ccc(Cl)c(NS(=O)(=O)c2nc3nc(Cl)cc(Cl)n3n2)c1Cl
81 to 82 | CCOC(=O)CC[C@H](NC(=O)c1cc(CCCc2cc3c(=O)[nH]c(N)nc3[nH]2)cs1)C(=O)OCC
159 to 161 | CCOC(=O)C1CCN(c2nc(C)nc3c2C(C)C(=O)N3c2c(C)cc(Br)cc2C)CC1 (stereo not drawn)
186 to 187 | CC(C)(C)c1ccc(S(=O)(=O)Nc2nc(Cl)ncc2Oc2ccccc2Cl)cc1
124 to 125 | Cc1cc(C)c(NC(=S)C2(C)CCc3c(C)c(O)c(C)c(C)c3O2)cc1C (stereo not drawn)
270 to 272 | Cc1ccc(C(=O)Nc2cccc(C(F)(F)F)c2)cc1-c1ccc2cnncc2c1
92 to 95 | Cc1cc(C)c(S(=O)(=O)Nc2onc(C)c2Br)c(C)c1
137 | CCCCCS(=O)(=O)NC(=O)CC(C)c1ccc(OCCOC)cc1Oc1ncc(C(F)(F)F)cc1Cl (stereo not drawn)
122 | CCCC(C)(O)C(=O)Nc1cc(Br)nc(OC)c1 (stereo not drawn)
182 to 184 | Cc1c(F)c(N2CCC(C)(CN)C2)c(F)c2c1c(=O)c(C(=O)O)cn2C1CC1 (stereo not drawn)
140 | O=Cc1ccc(-c2cn(S(=O)(=O)c3ccccc3)c3ccccc23)o1
207 | O=C(O)COc1ccc2c(-c3ccc(Cl)cc3)noc2c1
150 to 190 | COc1cc2c(cc1OC)C(NC=O)C(c1ccc3c(c1)OCO3)CC2 (stereo not drawn)
80 to 82 | COc1cc(OC)cc(N2CCN(C(=O)N(C)c3nc(C)c(C)nc3OC)CC2)c1
118 | CNC(=S)NCc1cc(-c2ccccc2)no1
> 260 | CC1(c2ccccc2)C2=C(COC2=O)Nc2cc3c(cc21)OCO3 (stereo not drawn)
65 to 67 | CCCCCC(CC(=O)Nc1cc(C(N)=O)ccc1C(C)(C)C)c1ccc(OCCCOC)cc1OC (stereo not drawn)

melting point [°C] | SMILES
229 to 231 | CC1Sc2c(C(=O)O)c(=O)c3cc(F)c(N4CCSCC4)cc3n21 (stereo not drawn)
254 to 255 | CNS(=O)(=O)c1cnc2c(OC)c(OC)c(OC)cc2c1O
151 | Cc1cc(C)nc(SSc2ccc([N+](=O)[O-])cc2C(Cl)(Cl)Cl)n1
161 to 162 | Cn1cccc1C1=CC(=O)c2nccnc2C1=O
208 to 210 | CN(C)S(=O)(=O)c1cccc2c1Sc1ccc(O)cc1N2
194 | Cc1nc2cc(NS(=O)(=O)c3cc(Cl)ccc3Cl)ccc2o1
148 to 149 | Cc1onc(-c2c(F)cccc2Cl)c1-c1csc(N)n1
174 to 176 | NS(=O)(=O)c1cc2cc(CO)ccc2s1
173 to 176 | Cc1ccc(S(=O)(=O)NC(=O)OCCc2ccc(-n3c(C(C)C)nc4cc(C(=O)N(C)C)c(Cl)cc43)cc2)cc1
150 to 151 | CCOC(=O)/C=C/c1nc(COc2ccc(COc3nn(-c4ccccc4)cc3C=O)cc2OC)c(C)o1
196 to 197 | Cn1cc(-c2cnccn2)cc(Br)c1=O
230 | CC(C)N1C(=O)C(=O)NC1=NC(=N)Nc1ccc(Cl)c(Cl)c1
> 250 | COc1cc(C)nc2c(OCc3c(Cl)ccc(N)c3Cl)cccc12
243 to 244 | COc1cc2nc(N3CCc4ccc(NC(C)=O)cc4C3)nc(N)c2cc1OC
141 to 149 | CC1(C)Cc2cc(O)c3c(c2C(c2cccc(-c4ccncc4)c2)=N1)CC(C)(C)O3
169 to 170 | CC(=O)c1cc(NS(C)(=O)=O)c(Sc2ccc(F)cc2F)cc1[N+](=O)[O-]
143 to 146 | CCOC(=O)c1cnc2ccc3nc(Cl)sc3c2c1Cl
